Measurements reported in US20240174690A1, “ANNULATED 2-AMINO-3-CYANO THIOPHENES AND DERIVATIVES FOR THE TREATMENT OF CANCER” (BOEHRINGER INGELHEIM INTERNATIONAL GMBH, priority 2021, published 2024).

Assays:
NCI-H2122 cells = assay: NCI-H2122 CTG proliferation assay (120 h) (NSCLC, G12C); format: cell-based; details: Homo sapiens
Summary of the method: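 Proliferation was read by CellTiter-Glo luminescence after 120 h of compound exposure, starting one day after seeding 200 NCI-H2122 (G12C) cells per well in RPMI/10% FCS. RLU relative to DMSO wells gave percent viability, and four-parameter nonlinear regression gave IC50.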

A375 cells = assay: A375 CTG proliferation assay (120 h) (melanoma, wt, B-Raf mutant, negative control); format: cell-based; details: Homo sapiens, A-375, CTG 120 h
Method: A375 CTG Proliferation Assay (120 h) (Melanoma, Wt, B-Raf Mutant, Negative Control)
A375 cells (ATCC CRL-1619) are dispensed into 384-well plates, flat and clear bottom (Greiner, PNr. 781091) at a density of 300 cells per well in 60 μL DMEM (Sigma 06429)+10% Fetal Calf Serum (HyClone, PNr.: SH30084.03) and incubated at 37° C. in a CO2 incubator overnight. The next day, compounds (10 mM stock in DMSO) are added at logarithmic dose series using the HP Digital Dispenser D300 (Tecan), including DMSO controls. Plates are incubated for 120 h, and cell viability is measured using CellTiter-Glo luminescent cell viability reagent (Promega product code G7570). Viability (stated as percent of control) is defined as relative luminescence units RLU of each well divided by the RLU of cells in DMSO controls. IC50 values are determined from viability measurements by non-linear regression using a four-parameter model.

KRAS (G12V)::SOS1 = KRAS (G12V)::SOS1 (Homo sapiens (Human), UniProt P01116, C118S/G12V); assay: KRAS::SOS1 AlphaScreen binding assay, KRAS G12V
KRAS (G12V)::SOS1, sequence (P01116 other isoform, or with tags, fused parts or gaps G12V/C118S): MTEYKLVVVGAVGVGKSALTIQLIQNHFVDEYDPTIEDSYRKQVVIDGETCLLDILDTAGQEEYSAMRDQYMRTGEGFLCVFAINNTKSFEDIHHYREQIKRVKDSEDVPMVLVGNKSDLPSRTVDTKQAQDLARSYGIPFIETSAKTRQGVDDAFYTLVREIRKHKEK
Source text: (§1) This assay can be used to examine the potency with which compounds according to the invention binding to (mutated) KRAS inhibit the protein-protein interaction between SOS1 and (mutated) KRAS e.g., KRAS WT, KRAS G12C, KRAS G12D, KRAS G12V, KRAS G13D. […] Low IC50 values in this assay setting are indicative of strong inhibition of protein-protein interaction between SOS1 and KRAS:
(§2) These assays measure the inhibitory effect of compounds on KRAS mutant protein-protein interactions using the Alpha Screen technology by Perkin Elmer.
(§3) The following (mutant) enzyme forms of KRAS and interacting proteins are used in these assays at the given concentrations: • KRAS (G12D) 1-169, N-terminal 6His-tag, C-terminal avi-tag (Xtal BioStructures, Inc.); final assay concentration 10 nM and SOS1 564-1049, N-terminal 229 GST-tag, TEV cleavage site (Viva Biotech Ltd); final assay concentration 5 nM; • KRAS (G12C) 1-169, N-terminal 6His-tag for purification, cleaved off, C-terminal avi-tag, biotinylated, mutations: C51S, C80L, C118S (in house); final assay concentration 7.5 nM and SOS1 564-1049, N-terminal 229 GST-tag, TEV cleavage site (Viva Biotech Ltd); final assay concentration 5 nM; • KRAS (G12V) 1-169, N-terminal 6His-tag for purification, cleaved off, C-terminal avi-tag, biotinylated, TEV cleavage site, mutation: C118S, GDP loaded (in house); final assay concentration 10 nM and SOS1 564-1049, N-terminal 229 GST-tag, TEV cleavage site (Viva Biotech Ltd); final assay concentration 10 nM; • KRAS (G13D) 1-169, N-terminal 6His-tag for purification, cleaved off, C-terminal avi-tag, biotinylated, TEV cleavage site, mutation: C118S, GDP loaded (in house); final assay concentration 10 nM and SOS1 564-1049, N-terminal 229 GST-tag, TEV cleavage site (Viva Biotech Ltd); final assay concentration 10 nM; • KRAS (WT) 1-169, N-terminal 6His-tag for purification, cleaved off, C-terminal avi-tag, biotinylated, TEV cleavage site, mutation: C118S, GDP loaded (in house); final assay concentration 10 nM and SOS1 564-1049, N-terminal 229 GST-tag, TEV cleavage site (Viva Biotech Ltd); final assay concentration 10 nM.
(§4) Test compounds dissolved in DMSO are dispensed onto assay plates (Proxiplate 384 PLUS, white, PerkinElmer; 6008289) using an Access Labcyte Workstation with the Labcyte Echo 55×. For the chosen highest assay concentration of 100 μM, 150 nL of compound solution are transferred from a 10 mM DMSO compound stock solution. A series of eleven fivefold dilutions per compound are transferred to the assay plate, compound dilutions are tested in duplicates. DMSO are added as backfill to a total volume of 150 nL.
(§5) The assays run on a fully automated robotic system in a darkened room below 100 Lux. To 150 nl of compound dilution 10 μl of a mix including KRAS mutant protein, SOS1 (final assay concentrations see above) and GDP nucleotide (Sigma G7127; final assay concentration 10 μM) in assay buffer (1×PBS, 0.1% BSA, 0.05% Tween 20) are added into columns 1-24.
(§6) After 30 minutes incubation time 5 μl of Alpha Screen bead mix in assay buffer are added into columns 1-23. Bead mix consists of AlphaLISA Glutathione Acceptor Beads (PerkinElmer, Cat No AL109) and AlphaScreen Streptavidin Donor Beads (PerkinElmer Cat No 6760002) in assay buffer at a final assay concentration of 10 μg/ml each.
(§7) Plates are kept at room temperature in a darkened incubator. After an additional 60 minutes incubation time the signal is measured in a PerkinElmer Envision HTS Multilabel Reader using the AlphaScreen specs from PerkinElmer.
(§8) Each plate contains up to 16 wells of a negative control depending on the dilution procedure (platewise or serial) (DMSO instead of test compound; with KRAS mutant::SOS1 GDP mix and bead mix; column 23) and 16 wells of a positive control (DMSO instead of test compound; with KRAS mutant::SOS1 GDP mix w/o bead mix; column 24).
(§9) As internal control known inhibitors of KRAS mutant::SOS1 interaction can be measured on each compound plate. […]

KRAS (G13D)::SOS1 = KRAS (G13D)::SOS1 (Homo sapiens (Human), UniProt P01116, C118S/G13D); assay: KRAS::SOS1 AlphaScreen binding assay, KRAS G13D
KRAS (G13D)::SOS1, sequence (P01116 other isoform, or with tags, fused parts or gaps G13D/C118S): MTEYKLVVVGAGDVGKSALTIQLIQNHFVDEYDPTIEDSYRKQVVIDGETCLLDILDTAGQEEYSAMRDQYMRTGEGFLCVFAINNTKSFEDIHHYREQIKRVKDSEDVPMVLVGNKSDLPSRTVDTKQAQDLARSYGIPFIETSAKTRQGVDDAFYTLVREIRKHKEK
Source text: as §1, §2, §3, §4, §5, §6, §7, §8, §9

Structure (SMILES) | IC50 (NCI-H2122 cells) | IC50 (A375 cells) | IC50 (KRAS (G12V)::SOS1) | IC50 (KRAS (G13D)::SOS1)
C[C@H](Oc1cc(-n2cc(-c3cncs3)nn2)nc(-c2noc3c2CCC[C@@]32CCCc3sc(N)c(C#N)c32)n1)[C@@H]1CCCN1C [II-125] | 768 nM | 324 nM | – | –
C[C@H](Oc1cc(-n2ccc(-c3cnccn3)n2)nc(-c2noc3c2CCC[C@@]32CCCc3sc(N)c(C#N)c32)n1)[C@@H]1CCCN1C [II-130] | 221 nM | 1310 nM | 2 nM | –
C[C@H](Oc1cc(-c2cccc(C(N)=O)c2)nc(-c2noc3c2CCC[C@@]32CCCc3sc(N)c(C#N)c32)n1)[C@@H]1CCCN1C [II-133] | 180 nM | 1380 nM | 2 nM | –
C[C@H](Oc1cc(N2CCOC2=O)nc(-c2noc3c2CCC[C@@]32CCCc3sc(N)c(C#N)c32)n1)[C@@H]1CCCN1C [II-143] | 584 nM | > 3000 nM | – | –
C[C@H](Oc1cc(N2CCN(C)C3(COC3)C2)nc(-c2noc3c2CCC[C@@]32CCCc3sc(N)c(C#N)c32)n1)[C@@H]1C[C@@H](F)CN1C [II-148] | 2220 nM | – | 3 nM | –
C[C@H](Oc1cc(N2CCNC3(CC3)C2)nc(-c2noc3c2CCC[C@@]32CCCc3sc(N)c(C#N)c32)n1)[C@@H]1C[C@@H](F)CN1C [II-165] | 1790 nM | – | 15 nM | 48 nM
C[C@H](Oc1cc(N2CCN(C)C3(CC3)C2)nc(-c2noc3c2CCC[C@@]32CCCc3sc(N)c(C#N)c32)n1)[C@@H]1CCCN1C [II-171] | 3060 nM | – | 50 nM | 64 nM
CC(C)NC(=O)Cc1ccn(-c2cc(O[C@@H](C)[C@@H]3CCCN3C)nc(-c3noc4c3CCC[C@@]43CCCc4sc(N)c(C#N)c43)n2)n1 [II-182] | – | – | – | 8 nM
C[C@H](Oc1cc(-n2ccc(C(=O)N[C@H]3CCOC3)n2)nc(-c2noc3c2CCC[C@@]32CCCc3sc(N)c(C#N)c32)n1)[C@@H]1CCCN1C [II-193] | – | – | 2 nM | 9 nM

Now from value to compound:

IC50 (NCI-H2122 cells) | IC50 (A375 cells) | IC50 (KRAS (G12V)::SOS1) | IC50 (KRAS (G13D)::SOS1) | Structure (SMILES)
– | – | 2 nM | – | CO[C@H]1CCN(C)[C@@H]1[C@H](C)Oc1cc(N2CCNC3(CC3)C2)nc(-c2noc3c2CCC[C@@]32CCCc3sc(N)c(C#N)c32)n1 [II-184]
– | – | 3 nM | – | C[C@H](Oc1cc(-n2ccc(C3(O)COC3)n2)nc(-c2noc3c2CCC[C@@]32CCCc3sc(N)c(C#N)c32)n1)[C@@H]1CCCN1C [II-189]
– | – | 1 nM | 7 nM | C[C@H](Oc1cc(-n2ccc(C(=O)N[C@@H]3CCOC3)n2)nc(-c2noc3c2CCC[C@@]32CCCc3sc(N)c(C#N)c32)n1)[C@@H]1CCCN1C [II-192]
– | – | 1 nM | 7 nM | COCCNC(=O)c1ccn(-c2cc(O[C@@H](C)[C@@H]3CCCN3C)nc(-c3noc4c3CCC[C@@]43CCCc4sc(N)c(C#N)c43)n2)n1 [II-195]
– | – | 2 nM | – | CO[C@H]1CCN(C)[C@@H]1[C@H](C)Oc1cc(-n2ccc(C(=O)N[C@@H](C)c3ccccn3)n2)nc(-c2noc3c2CCC[C@@]32CCCc3sc(N)c(C#N)c32)n1 [II-196]
– | – | – | 27 nM | CO[C@H]1CCN(C)[C@@H]1[C@H](C)Oc1cc(-n2ccc(C(N)=O)n2)nc(-c2noc3c2CCC[C@@]32CCCc3sc(N)c(C#N)c32)n1 [II-201]
– | – | 2 nM | – | C[C@H](Oc1cc(-n2ccc(-c3cn(C4CCOCC4)nn3)n2)nc(-c2noc3c2CCC[C@@]32CCCc3sc(N)c(C#N)c32)n1)[C@@H]1CCCN1C [II-210]
